Assay results as given in patent publication US20200385371A1 (Propellon Therapeutics Inc., priority 2017, published 2020).
Structures can show the parent of a compound that is named as a salt.

What was measured:
[1] = target: T1, WDR5 (Homo sapiens, UniProt P61964); test: Surface Plasmon Resonance (SPR) assay; type: binding; parameters: Full length WDR5 with an N-terminal His tag and C-terminal AviTag; His tag (N); made in house; host or cells: E. coli; settings: read-out: SPR Kd
How it was run: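 Full-length biotinylated WDR5 (N-His, C-AviTag, E. coli) captured (~3000 RU) on streptavidin SA chip; Biacore T200. HBS-EP pH 7.4 plus 5% DMSO running buffer, 40 μl/min.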

[2] = target: T1, WDR5; test: Fluorescence Polarization (FP) binding assay
How it was run: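 Buffer was pH 6.5 sodium phosphate (80 mM) with 20 mM KCl and 0.008% Triton X-100; 9-Ala-FAM probe at 20 nM used 0.05 μM WDR5 and 480/540 nm polarization, H3 (1-15) probe at 30 nM used 0.3 μM WDR5 and 485/528 nm. Quadruplicate data were hyperbola-fitted to give Kdisp.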

[3] = test system: MV4-11 cells; test: Cell proliferation assay (ATPlite); type: cell-based; settings: Homo sapiens, 120 h; MV4-11 cells, five days; read-out: GI MV411 EC50
How it was run: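 ATPlite luminescence after five days' culture (37° C, 5% CO2) gives viability. Compounds dosed in 10 concentrations up to 10 μM against DMSO; 1,000 cells/well seeded in Alpha-MEM/10% FBS.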

SMILES	Kd [1]	IC50 [2]	EC50 [3]
C[C@@H]1CN(c2ncc(-c3c(F)cc(N4CCN(C)[C@@H](C)C4)c(NC(=O)c4cn(C)c(=O)cc4C(F)(F)F)c3F)cn2)C[C@H](C)O1 [Example 164, N-(3-(2-((2S,6R)-2,6-dimethylmorpholino)pyrimidin-5-yl)-6-((S)-3,4-dimethylpiperazin-1-yl)-2,4-difluorophenyl)-1-methyl-6-oxo-4-(trifluoromethyl)-1,6-dihydropyridine-3-carboxamide]	1.16 nM	13.3 nM	71.9 nM
C[C@@H]1CN(c2ncc(-c3c(F)cc(N4CCN(C)[C@@H](C)C4)c(NC(=O)c4cn(C)c(=O)cc4C(F)(F)F)c3F)cn2)C[C@@H](C)O1 [Example 165, N-(3-(2-((2R,6R)-2,6-dimethylmorpholino)pyrimidin-5-yl)-6-((S)-3,4-dimethylpiperazin-1-yl)-2,4-difluorophenyl)-1-methyl-6-oxo-4-(trifluoromethyl)-1,6-dihydropyridine-3-carboxamide]	0.82 nM	13.6 nM	169 nM
C[C@H]1CN(c2ncc(-c3c(F)cc(N4CCN(C)[C@@H](C)C4)c(NC(=O)c4ccc(F)cc4C(F)(F)F)c3F)cn2)C[C@H](C)O1 [Example 166, N-(3-(2-((2S,6S)-2,6-dimethylmorpholino)pyrimidin-5-yl)-6-((S)-3,4-dimethylpiperazin-1-yl)-2,4-difluorophenyl)-4-fluoro-2-(trifluoromethyl)benzamide Formic Acid Salt]	0.73 nM	11.7 nM	63.6 nM
C[C@@H]1CN(c2ncc(-c3c(F)cc(N4CCN(C)[C@@H](C)C4)c(NC(=O)c4ccc(F)cc4C(F)(F)F)c3F)cn2)C[C@@H](C)O1 [Example 167, N-(3-(2-((2R,6R)-2,6-dimethylmorpholino)pyrimidin-5-yl)-6-((S)-3,4-dimethylpiperazin-1-yl)-2,4-difluorophenyl)-4-fluoro-2-(trifluoromethyl)benzamide Formic Acid Salt]	0.66 nM	11.5 nM	75.5 nM
C[C@@H]1CN(c2ccc(-c3c(F)cc(N4C[C@@H](C)N(C)[C@@H](C)C4)c(NC(=O)c4c[nH]c(=O)cc4C(F)(F)F)c3F)cn2)CCO1 [Example 168, N-(2,4-difluoro-3-(6-((R)-2-methylmorpholino)pyridin-3-yl)-6-((3S,5R)-3,4,5-trimethylpiperazin-1-yl)phenyl)-6-oxo-4-(trifluoromethyl)-1,6-dihydropyridine-3-carboxamide]	0.87 nM	16.6 nM	36.8 nM
C[C@@H]1CN(c2ccc(-c3c(F)cc(N4CCN(C)[C@@H](C)C4)c(NC(=O)c4c[nH]c(=O)cc4C(F)(F)F)c3F)cn2)CCO1 [Example 169, N-(6-((S)-3,4-dimethylpiperazin-1-yl)-2,4-difluoro-3-(6-((R)-2-methylmorpholino)pyridin-3-yl)phenyl)-6-oxo-4-(trifluoromethyl)-1,6-dihydropyridine-3-carboxamide]	0.99 nM	16.7 nM	51.4 nM
C[C@@H]1CN(c2ccc(-c3c(F)cc(N4CCN(C)[C@@H](C)C4)c(NC(=O)c4c[nH]c(=O)cc4C(F)(F)F)c3F)cn2)C[C@H](C)O1 [Example 170, N-(3-(6-((2S,6R)-2,6-dimethylmorpholino)pyridin-3-yl)-6-((S)-3,4-dimethylpiperazin-1-yl)-2,4-difluorophenyl)-6-oxo-4-(trifluoromethyl)-1,6-dihydropyridine-3-carboxamide]	0.83 nM	15.6 nM	32.3 nM
C[C@H]1CN(c2ccc(-c3c(F)cc(N4CCN(C)[C@@H](C)C4)c(NC(=O)c4c[nH]c(=O)cc4C(F)(F)F)c3F)cn2)CCO1 [Example 171, N-(6-((S)-3,4-dimethylpiperazin-1-yl)-2,4-difluoro-3-(6-((S)-2-methylmorpholino)pyridin-3-yl)phenyl)-6-oxo-4-(trifluoromethyl)-1,6-dihydropyridine-3-carboxamide]	0.49 nM	16.1 nM	51.9 nM
C[C@@H]1CN(c2ccc(-c3c(F)cc(N4CCN(C)[C@@H](C)C4)c(NC(=O)c4ccc(F)cc4C(F)(F)F)c3F)cn2)CCO1 [Example 172, N-(6-((S)-3,4-dimethylpiperazin-1-yl)-2,4-difluoro-3-(6-((R)-2-methylmorpholino)pyridin-3-yl)phenyl)-4-fluoro-2-(trifluoromethyl)benzamide]	1.02 nM	18.9 nM	124 nM
C[C@H]1CN(c2cc(F)c(-c3cnc(N4CCNCC4)nc3)c(F)c2NC(=O)c2ccc(F)cc2C(F)(F)F)CCN1C [Example 173, (S)—N-(6-(3,4-dimethylpiperazin-1-yl)-2,4-difluoro-3-(2-(piperazin-1-yl)pyrimidin-5-yl)phenyl)-4-fluoro-2-(trifluoromethyl)benzamide]	1.35 nM	16 nM	24.4 nM
C[C@H]1CN(c2cc(F)c(-c3ccc(N4CCOCC4)nc3)c(F)c2NC(=O)c2ccc(F)cc2C(F)(F)F)CCN1C [Example 174, (S)—N-(6-(3,4-dimethylpiperazin-1-yl)-2,4-difluoro-3-(6-morpholinopyridin-3-yl)phenyl)-4-fluoro-2-(trifluoromethyl)benzamide]	1.71 nM	19.5 nM	191 nM
C[C@@H]1CN(c2ccc(-c3c(F)cc(N4CCN(C)[C@@H](C)C4)c(NC(=O)c4cn(C)c(=O)cc4C(F)F)c3F)cn2)C[C@H](C)O1 [Example 175, 4-(Difluoromethyl)-N-(3-(6-((2S,6R)-2,6-dimethylmorpholino)pyridin-3-yl)-6-((S)-3,4-dimethylpiperazin-1-yl)-2,4-difluorophenyl)-1-methyl-6-oxo-1,6-dihydropyridine-3-carboxamide]	1.57 nM	24.6 nM	255 nM
C[C@@H]1CN(c2ccc(-c3c(F)cc(N4CCN(C)[C@@H](C)C4)c(NC(=O)c4ccc(F)cc4C(F)(F)F)c3F)cn2)C[C@H](C)O1 [Example 176, N-(3-(6-((2S,6R)-2,6-dimethylmorpholino)pyridin-3-yl)-6-((S)-3,4-dimethylpiperazin-1-yl)-2,4-difluorophenyl)-4-fluoro-2-(trifluoromethyl)benzamide]	1.46 nM	19.8 nM	139 nM
C[C@@H]1CN(c2ccc(-c3c(F)cc(N4CCN(C)[C@@H](C)C4)c(NC(=O)c4ccc(F)cc4C(F)F)c3F)cn2)CCO1 [Example 177, 2-(Difluoromethyl)-N-(6-((S)-3,4-dimethylpiperazin-1-yl)-2,4-difluoro-3-(6-((R)-2-methylmorpholino)pyridin-3-yl)phenyl)-4-fluorobenzamide]	1.72 nM	23 nM	101 nM
C[C@@H]1CN(c2ccc(-c3c(F)cc(N4CCN(C)[C@@H](C)C4)c(NC(=O)c4ccc(F)cc4C(F)F)c3F)cn2)C[C@H](C)O1 [Example 178, 2-(Difluoromethyl)-N-(3-(6-((2S,6R)-2,6-dimethylmorpholino)pyridin-3-yl)-6-((S)-3,4-dimethylpiperazin-1-yl)-2,4-difluorophenyl)-4-fluorobenzamide]	1.42 nM	19.7 nM	189 nM
C[C@H]1CN(c2ccc(-c3c(F)cc(N4CCN(C)[C@@H](C)C4)c(NC(=O)c4ccc(F)cc4C(F)F)c3F)cn2)CCO1 [Example 179, 2-(Difluoromethyl)-N-(6-((S)-3,4-dimethylpiperazin-1-yl)-2,4-difluoro-3-(6-((S)-2-methylmorpholino)pyridin-3-yl)phenyl)-4-fluorobenzamide]	1.59 nM	20.1 nM	141 nM
C[C@H]1CN(c2cc(F)c(-c3ccc(N4CCOCC4)nc3)c(F)c2NC(=O)c2ccc(F)cc2C(F)F)CCN1C [Example 180, (S)-2-(Difluoromethyl)-N-(6-(3,4-dimethylpiperazin-1-yl)-2,4-difluoro-3-(6-morpholinopyridin-3-yl)phenyl)-4-fluorobenzamide]	2.51 nM	22.4 nM	198 nM
C[C@@H]1CN(c2ccc(-c3c(F)cc(N4CCN(C)[C@@H](C)C4)c(NC(=O)c4c[nH]c(=O)cc4C(F)F)c3F)cn2)CCO1 [Example 181, 4-(Difluoromethyl)-N-(6-((S)-3,4-dimethylpiperazin-1-yl)-2,4-difluoro-3-(6-((R)-2-methylmorpholino)pyridin-3-yl)phenyl)-6-oxo-1,6-dihydropyridine-3-carboxamide]	0.64 nM	24.5 nM	29.9 nM
C[C@@H]1CN(c2ccc(-c3c(F)cc(N4CCN(C)[C@@H](C)C4)c(NC(=O)c4c[nH]c(=O)cc4C(F)F)c3F)cn2)C[C@H](C)O1 [Example 182, 4-(Difluoromethyl)-N-(3-(6-((2S,6R)-2,6-dimethylmorpholino)pyridin-3-yl)-6-((S)-3,4-dimethylpiperazin-1-yl)-2,4-difluorophenyl)-6-oxo-1,6-dihydropyridine-3-carboxamide]	1.15 nM	25.4 nM	31 nM
C[C@H]1CN(c2ccc(-c3c(F)cc(N4CCN(C)[C@@H](C)C4)c(NC(=O)c4c[nH]c(=O)cc4C(F)F)c3F)cn2)CCO1 [Example 183, 4-(Difluoromethyl)-N-(6-((S)-3,4-dimethylpiperazin-1-yl)-2,4-difluoro-3-(6-((S)-2-methylmorpholino)pyridin-3-yl)phenyl)-6-oxo-1,6-dihydropyridine-3-carboxamide]	1.34 nM	22.7 nM	24.4 nM
